Assay results from patent US12438175B2, “Aqueous organic-based electrolyte for redox flow battery” (KEMIWATT, priority 2019, dated 2025).
Values after ≈ are worked out from the molar mass of the structure shown.

How the values were obtained:
[1] = Cyclic voltammetry / linear sweep voltammetry, electrochemical parameters; assay type: physicochemical; conditions: for Peak-to-peak separation ΔEp: 100 mV/s, third cycle
Description: Cyclic voltammetry experiments were performed at a 100 mV/s scan rate for compounds M3CH, D3CH, D4CH, M3SH, D3SH, M4SH and D4SH in solution at pH 13 (KOH 0.1 M) or pH 14 (KOH 1 M).
The electrochemical experiments were conducted on an electrochemical working station (BioLogic Science Instruments VSP) at 25° C. using a three-electrodes electrochemical cell, where a Pt wire was employed at the counter electrode (CE), an Ag/AgCl/KCl saturated electrode immerged in a 1 M KOH solution protected from the cell by a porous frit glass served as the reference electrode (RE) and a rotating disc electrode (RDE) mounted with a glassy carbon (GC, 7.069 mm^2) disk was used as the working electrode (WE), respectively. The potential was reported relative to the normal hydrogen electrode (NHE), which was converted from the Ag/AgCl reference electrode (0.230 V versus NHE). The ohmic drop between the WE and RE is determined by current interrupt experiments and leads to a value close to 0.7069 Ω·cm^2. All cyclic voltammetry experiments were conducted by alleviating most of this resistance (85%) using the potentiostat manual ohmic drop compensation. Before each electrochemical measurement, the GC disk electrode was polished using SiC P4000 foil.
Each recorded cyclic voltammetry of the reduction and the oxidation process of a compound at a given scan rate is analyzed by measuring ip,a=anodic peak current; ip,c=cathodic peak current; v=scan rate; Ep,a=anodic peak potential; Ep,c=cathodic peak potential; ΔEp=Ep,a−Ep,c; the apparent standard redox potential E^0′=[…].
Linear sweep voltammetry (LSV) using the RDE at various rotation speed (400 up to 1 000 RPM) were performed to determine the averaged half-wave potential E1/2.
The oxidation (DO) and the reduction (DR) diffusion coefficients were calculated using Randles-Sevcik (RS) equation ip=0.4463·n^3/2·F^3/2·A·C·v^1/2·D^1/2·R^−1/2·T^−1/2=Cye·v^1/2·D^1/2, n=number of electrons exchanged during the redox process; F=faradaic number=96485 C·mol^−1; A=electrode active surface; C=redox active molecule concentration; R=gas constant=8.314 J·K^−1·mol^−1; T=bulk temperature=299 K. The experiments are conducted by cyclic voltammetry at various scan rates ranging from 10 mV/s up to 20 V/s.
A graphic of lip,al and lip,cl=f(Cte×v^1/2) is plotted, if the redox process is reversible and diffusion controlled, the peak current should be proportional to the square root of the scan rate. The diffusion coefficients (oxidation and reduction) are then calculated by taking the square of the regression lines slopes. Diffusion coefficients (oxidation and reduction processes) are evaluated by plotting the peak current versus a constant multiplied by the square root of the scan rate. The plots regression line gives a straight line with perfect correlation coefficient (100%) confirming that the redox process is reversible and diffusion controlled. The square of each slope gives the associated coefficient diffusion in cm^2 s^−1.
The apparent heterogeneous rate constant during oxidation (k^0′O)/and reduction (k^0′R) process was calculated using Gileadi's equation (C. Rüssel, W. Jaenicke, Electrochimica Acta, Vol 27, N° 12, 1745-1750, 1982) log k^0′=−0.48α+0.52 +log[(nFαvcD)/(2.303RT)]^1/2; vc is the critical scan rate, it is calculated by plotting the peak potentials versus the logarithm of the scan rates, and is more precise when a very wide range of scan rates is used, which is the case here (0.010 up to 20 V·s^−1), it is determined at the x-axis of the point of intersection of the regression lines drawn at low and high scan rates; a is the transfer coefficient that is supposed to be close to 0.5 for all presented compounds.
Peak-to-peak separation ΔEp values were determined from the third cycle of each cyclic voltammogram (FIGS. 1 and 2) and are gathered in the following table 4.
The standard redox process reversibility evaluation is performed in diluted state, at 5 mM of concentration, at pH 14 buffered with 1 M of KOH. […]

[2] = Degradation study by 1H NMR of electrolyte heated at 40° C.; assay type: physicochemical
Description: This study consists of NMR ^1H measurements of an electrolyte heated at 40° C. and kept under stirring at 300 RPM using a magnetic stirrer.
Such behavior was detailed in the literature (WO 2019/157437) and is characteristic of a nucleophilic attack i.e. of OH^− in strong alkaline environment causing the functionalized arm to be cleaved.

[3] = Cycling tests of redox flow battery cells in galvanostatic mode; conditions: Test 1: 0.5 M M3CH, pH 13.0
Description: General procedure: Cell tests were carried out on a BCS-815 battery cycler (Biologic) at room temperature. The redox flow battery cell was composed of an Aquivion® membrane (E98-09S Solvay) with an 80 μm thickness serving as separator sandwiched between two GFD porous graphite felts (SGL Carbon group, GFD 4.6 EA), 4.6 mm thick with an active area of 5 or 25 cm^2. The electrodes were inserted into 3 mm PVC frames surrounded by EPDM gaskets. The current collectors were made of graphite composite material provided by SGL and the assembly was compressed by two PVC end-plates. […]
Capacity utilization was calculated by determining the ratio of the discharge capacity to the theoretical capacity available in the electrolytes. Coulombic efficiency was calculated by determining the ratio of the discharge capacity to the charge capacity. Energy efficiency was calculated by determining the ratio of the discharge energy to the charge energy. The energy density was calculated by determining the ratio of the discharge energy to the total volume of posolyte (positive electrolyte) and negolyte (negative electrolyte). […]
At the end of charge, a rest of 24 hours at ocv was added before each discharge, allowing to quantify the self-discharge of this system in conditions close to its future application.

[4] = Solubility in aqueous solution at various pH by shake-flask method; conditions: thermodynamic from solid
Description: An aqueous solution (containing either KCl 1M, KOH 1M or H2SO4 1M) is added over 100 mg of compound by 20 μL portions until complete solubilization. We obtain an approximate range of solubility values calculated as following:
Smax˜(m/M)/V; m=mass of evaluated compound (g); M=molar mass of evaluated compound (g·mol^−1); V=added volume (L).

[5] = Cycling tests of redox flow battery cells in constant power cycling mode; conditions: extrapolated from 5 days; flowrate 0.5 mL/min/cm^2; negolyte 120/120/40/370 mL

In the case of `O=C(O)CCCOc1ccc(O)c2c1C(=O)c1ccccc1C2=O` [Compound M3CH], the “E^0′ apparent standard redox potential” value ([1]; 5 mM, pH 14, 1 M KOH) is reported as −0.484 V vs NHE, the E1/2 half-wave potential ([1]; 5 mM, pH 14, 1 M KOH, RDE) is reported as −0.484 V vs NHE and the “k^0′O × 10^−2 apparent heterogeneous rate constant” value ([1]; Gileadi's equation) is reported as 2.3 × 10^−2 cm/s. The “DO × 10^−6 diffusion coefficient” value ([1]; Randles-Sevcik) was 5.2 × 10^−6 cm^2/s, the “Peak-to-peak separation ΔEp” value ([1]; pH 13 (KOH 0.1 M)) was 140 mV and the “Peak-to-peak separation ΔEp” value ([1]; pH 14 (KOH 1 M)) was 31 mV. The degradation rate ([2]; 0.05 M, pH 13.9, 40° C.) was “roughly 15 % per month”, the “degradation after a month” value ([2]; 0.4 M, pH 13.5, 0.8 M KOH, 0.3 M NaOH, 40° C.) was “did not undergo any degradation” and the solubility over state-of-charge [3] was “soluble at every state-of-charge”. For the same compound, the solubility ([4]; aqueous H2SO4 1M solution, pH 0, aqueous buffer) was 310 mM (≈ 101 mg/mL), the solubility ([4]; aqueous KOH 1M solution, pH 14, aqueous buffer) was 530 mM (≈ 173 mg/mL) and the “Stability in cycles (−20%)” value [5] was 28449 cycles. For the same compound, the “Stability in days (−20%)” value [5] was 10942.1 days.
